The text below walks through data of patent publication US20200297671A1, “METHODS OF AVOIDING EXCIPIENT-BASED ADVERSE EFFECTS AND OF EXPLOITING BIOLOGICAL PROPERTIES OF GRAS COMPOUNDS” (MASSACHUSETTS INSTITUTE OF TECHNOLOGY, priority 2019, published 2020).

One data set relates to P-gp. The experiment in a line: P-gp in vivo experiment (warfarin plasma concentration). Also on record: species or system BALB/c mice. Conditions: mice. On the procedure:
A suspension of vitamin A palmitate in 10% DMSO PBS or 10% DMSO PBS buffer control were administered orally to five female BALB/c mice at a dose of 500 mg/kg 15 minutes prior to treatment. Mice were then treated orally with warfarin 20 mg/kg. Blood was sampled after 30 minutes of oral warfarin administration. Warfarin plasma concentrations were determined using LCMS.

The subject of another data set is patients. Conditions: cited from earlier work.
For the next data set, the target named is T1, Human UGT2B7 (Homo sapiens, UniProt P16662).
T1 construct: purchased Corning
T1 sequence (P16662 24-529): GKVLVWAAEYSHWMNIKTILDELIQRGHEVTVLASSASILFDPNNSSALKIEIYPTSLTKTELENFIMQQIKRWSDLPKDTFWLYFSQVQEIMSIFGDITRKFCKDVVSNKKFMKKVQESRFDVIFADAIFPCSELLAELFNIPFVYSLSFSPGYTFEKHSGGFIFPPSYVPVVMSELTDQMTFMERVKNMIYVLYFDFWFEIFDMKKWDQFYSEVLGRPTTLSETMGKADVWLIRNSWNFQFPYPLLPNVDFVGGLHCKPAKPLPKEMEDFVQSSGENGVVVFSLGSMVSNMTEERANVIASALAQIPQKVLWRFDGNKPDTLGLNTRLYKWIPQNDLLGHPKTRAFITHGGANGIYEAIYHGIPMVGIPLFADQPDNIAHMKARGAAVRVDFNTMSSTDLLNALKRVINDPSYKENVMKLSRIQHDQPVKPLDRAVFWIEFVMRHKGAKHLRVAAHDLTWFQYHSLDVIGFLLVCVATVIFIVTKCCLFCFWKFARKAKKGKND
Kind of data set: UGT2B7 inhibition assay (Corning Supersomes, Biovision UGT activity kit). It counts as biochemical. Here is the method:
UGT2B7 inhibition was measured using Corning® Supersomes™ Human UGT2B7. The inhibition of UGT2B7 was measured using the commercially-available Biovision UGT activity screening kit as previously described. Briefly, 0.1 mg/mL microsomes were mixed with Alamethicin for pore-formation and a proprietary UGT ligand that loses fluorescence after glucuronidation (Biovision). Plates were incubated for 5 minutes at RT and protected from light before the enzymatic reaction was initiated through the addition of UDPGA. […] Diclofenac (1 mM in PBS 1% DMSO) served as a positive inhibitor control.

For another data set, the system named is UGT. Kind of data set: UGT tissue assay (liver lysate). It counts as biochemical, porcine. Conditions: pig liver lysate, 500 μM. Here is the method:
Compound mixtures were prepared at 500 μM. Freshly extracted porcine liver was homogenized using a tissue homogenizer. The sample was separated using centrifugation and the supernatant was used as a test sample. Two independent experiments with two different liver extracts were performed as described for the microsomes.

The subject of another data set is mice. The conditions noted are these: cited from earlier work.

For the compound `CCCCCCCCCCCCCCCC(=O)OC/C=C(C)/C=C/C=C(C)/C=C/C1=C(C)CCCC1(C)C` [vitamin A palmitate], the “systemic warfarin after oral delivery (FIG. 23)” value with P-gp is recorded as “induces an increase of systemic warfarin”. In addition, the “increase of oral absorption of warfarin” value in the data set on P-gp (500 mg/kg oral 15 minutes before warfarin 20 mg/kg oral, blood after 30 minutes) was determined as 31%.

For `O=C([O-])C1=NN(c2ccc(S(=O)(=O)[O-])cc2)C(=O)C1N=Nc1ccc(S(=O)(=O)[O-])cc1.[Na+].[Na+].[Na+]` (centres unmarked) [tartrazine], in the data set on patients (tartrazine-containing versus tartrazine-free medications, all patients), the “patients with adverse symptoms associated with tartrazine content” value is reported as “about 4%”.

For the compound `OC[C@H]1O[C@@H](O[C@H]2[C@H](O)[C@@H](O)C(O)O[C@@H]2CO)[C@H](O)[C@@H](O)[C@H]1O` (some centres unmarked) [lactose], in the data set with patients (severe cases of lactose intolerance), the amount affecting individuals entry is “less than 200 mg”.

As a reminder, the IC50 is the concentration that gives 50% inhibition. A higher IC50 goes with lower potency. `CC(C)C1=CC2=CC[C@@H]3[C@](C)(CCC[C@@]3(C)C(=O)O)[C@H]2CC1` [abietic acid]: the “inhibition of UGT2B7 activity in microsomes (FIG. 18)” value against Human UGT2B7 was “can inhibit UGT2B7 activity”. This compound showed an IC50 on Human UGT2B7 (functional in vitro assay, microsomes, 30 minutes) of 2.2 ± 0.3 µM. In the data set on UGT, the “inhibition of UGT activity ex vivo” value is on record as “successfully inhibited UGT activity”. Further, in the data set on mice, the toxicity in mice result is “harmless in mice”.
